Test results reported in the CheMixHub drug solubility set.

Assay: xn = mol fraction of the nth substance listed, in the solute-free solvent

CCOC(=O)OC1=C(c2cc(C)ccc2C)C(=O)NC12CCC(OC)CC2 (centres undefined) + CO + O
solubility (g/100 g solution)
Details | 278.15 K | 283.15 K | 288.15 K | 293.15 K | 298.15 K | 303.15 K | 308.15 K | 313.15 K | 318.15 K
x2 = 0.2 | 0.00416 | 0.0064 | 0.0104 | 0.0162 | 0.0253 | 0.0409 | 0.0592 | 0.0833 | 0.132
x2 = 0.4 | 0.292 | 0.365 | 0.473 | 0.613 | 0.803 | 1.07 | 1.44 | 1.9 | 2.64
x2 = 0.6 | 1.47 | 1.82 | 2.22 | 2.8 | 3.56 | 4.5 | 5.89 | 7.65 | 9.83
x2 = 0.8 | 3.55 | 4.27 | 5.22 | 6.38 | 8.03 | 10.1 | 12.7 | 15.7 | 19.2

CC1CCC2C(C)C(OC(=O)CCC(=O)O)OC3OC4(C)CCC1C32OO4 (centres undefined) + CC(O)CO + O
solubility (g/100 g solution)
Details | 278.15 K | 283.15 K | 288.15 K | 293.15 K | 298.15 K | 303.15 K | 308.15 K | 313.15 K | 318.15 K
x2 = 0.02567 | 0.0421 | 0.056 | 0.0717 | 0.092 | 0.114 | 0.145 | 0.181 | 0.223 | 0.275
x2 = 0.05599 | 0.0843 | 0.11 | 0.139 | 0.176 | 0.215 | 0.27 | 0.333 | 0.404 | 0.492
x2 = 0.0921 | 0.155 | 0.201 | 0.25 | 0.313 | 0.377 | 0.466 | 0.568 | 0.682 | 0.819
x2 = 0.1363 | 0.259 | 0.33 | 0.408 | 0.503 | 0.606 | 0.737 | 0.888 | 1.05 | 1.25
x2 = 0.1915 | 0.384 | 0.484 | 0.593 | 0.724 | 0.853 | 1.03 | 1.23 | 1.45 | 1.71
x2 = 0.2622 | 0.501 | 0.635 | 0.77 | 0.932 | 1.1 | 1.3 | 1.55 | 1.81 | 2.09
x2 = 0.3554 | 0.579 | 0.73 | 0.88 | 1.06 | 1.24 | 1.46 | 1.72 | 2 | 2.3
x2 = 0.4866 | 0.602 | 0.746 | 0.906 | 1.08 | 1.27 | 1.48 | 1.75 | 2.01 | 2.31
x2 = 0.6826 | 0.571 | 0.704 | 0.845 | 1.02 | 1.19 | 1.38 | 1.62 | 1.86 | 2.12

Cc1nc2n(c(=O)c1CCN1CCC(c3noc4cc(F)ccc34)CC1)CCCC2 + CC(C)O + O
solubility (g/100 g solution)
Details | 278.15 K | 283.15 K | 288.15 K | 293.15 K | 298.15 K | 303.15 K | 308.15 K | 313.15 K
x2 = 0.1139 | 0.369 | 0.473 | 0.605 | 0.788 | 0.98 | 1.22 | 1.52 | 1.88
x2 = 0.1664 | 1.41 | 1.66 | 1.99 | 2.47 | 2.94 | 3.63 | 4.31 | 5.25
x2 = 0.2308 | 2.72 | 3.2 | 3.94 | 4.7 | 5.66 | 6.83 | 8.2 | 9.98
x2 = 0.3101 | 4.21 | 4.9 | 5.85 | 6.92 | 8.29 | 9.97 | 11.9 | 14.2
x2 = 0.4116 | 4.95 | 5.81 | 6.87 | 8.09 | 9.69 | 11.5 | 13.5 | 16.3
x2 = 0.5454 | 4.55 | 5.34 | 6.38 | 7.46 | 8.78 | 10.4 | 12.3 | 14.6
x2 = 0.7297 | 2.53 | 3.02 | 3.63 | 4.31 | 5.08 | 6.06 | 7.28 | 8.7

c1ccc(-c2ccc(C(c3ccccc3)n3ccnc3)cc2)cc1 (centres undefined) + CCCO + O
solubility (g/100 g solution)
Details | 278.15 K | 283.15 K | 288.15 K | 293.15 K | 298.15 K | 303.15 K | 308.15 K | 313.15 K | 318.15 K
x2 = 0.03225 | 0.0336 | 0.0464 | 0.0633 | 0.0834 | 0.101 | 0.139 | 0.185 | 0.229 | 0.288
x2 = 0.06974 | 0.0833 | 0.114 | 0.154 | 0.202 | 0.244 | 0.332 | 0.436 | 0.54 | 0.674
x2 = 0.1139 | 0.174 | 0.22 | 0.295 | 0.402 | 0.547 | 0.719 | 0.918 | 1.13 | 1.35
x2 = 0.1666 | 0.308 | 0.417 | 0.558 | 0.724 | 0.884 | 1.18 | 1.52 | 1.9 | 2.34
x2 = 0.2307 | 0.467 | 0.573 | 0.784 | 1.06 | 1.3 | 1.74 | 2.22 | 2.82 | 3.53
x2 = 0.3103 | 0.618 | 0.836 | 1.12 | 1.45 | 1.81 | 2.37 | 3.04 | 3.83 | 4.72
x2 = 0.4117 | 0.601 | 0.91 | 1.27 | 1.77 | 2.4 | 3.06 | 3.87 | 4.77 | 5.68
x2 = 0.5454 | 0.774 | 1.05 | 1.42 | 1.86 | 2.37 | 3.09 | 3.98 | 5.09 | 6.3
x2 = 0.7297 | 0.768 | 1.11 | 1.56 | 2.08 | 2.68 | 3.46 | 4.32 | 5.36 | 6.55
